Details in all cases: 11-point 3-fold dilution
The target of assay [1] is T1, IRAK1 (Homo sapiens, UniProt P51617).
T1 construct: purchased Reaction Biology (RBC HotSpot)
Briefly: DiscoverX KINOMEscan competition binding assay, IRAK1. The source says: (§1) […]. […] As a result, the data report thermodynamic interaction affinities (Kd values), rather than IC50 values that are dependent on ATP concentrations. The assay uses a DNA-tagged version of the protein kinase, and an immobilized ligand bound to a solid support. Compounds that directly or indirectly prevent kinase binding to the immobilized ligand reduce the amount of kinase captured on the solid support, which is detected using an ultra-sensitive qPCR method. Affinity constants reported from the assay have been reported to be independent of the immobilized ligand used that is coupled to the solid support (See supplemental information in Fabian, M. A. et. al., (2005) Nat. Biotechnol. 23, 329-336; Wodicka, L. M. et. al., (2010) Chem. Biol. 17, 1241-1249.)
(§2) Kinase-tagged T7 phage strains were prepared in an E. coli host derived from the BL21 strain. E. coli were grown to log-phase and infected with T7 phage and incubated with shaking at 32° C. until lysis. The lysates were centrifuged and filtered to remove cell debris. The remaining kinases were produced in HEK-293 cells and subsequently tagged with DNA for qPCR detection. Streptavidin-coated magnetic beads were treated with biotinylated small molecule ligands for 30 minutes at room temperature to generate affinity resins for kinase assays. The liganded beads were blocked with excess biotin and washed with blocking buffer (SeaBlock (Pierce), 1% BSA, 0.05% Tween 20, 1 mM DTT) to remove unbound ligand and to reduce non-specific binding. […] Test compounds were prepared as 111× stocks in 100% DMSO. Kds were determined using an 11-point 3-fold compound dilution series with three DMSO control points. All compounds for Kd measurements are distributed by acoustic transfer (non-contact dispensing) in 100% DMSO. The compounds were then diluted directly into the assays such that the final concentration of DMSO was 0.9%. All reactions were performed in polypropylene 384-well plates. Each was a final volume of 0.02 mL. […] The kinase concentration in the eluates was measured by qPCR.
(§3) Binding constants (Kds) were calculated with a standard dose-response curve using the Hill equation. The Hill Slope was set to −1. Curves were fitted using a non-linear least square fit with the Levenberg-Marquardt algorithm.

Assay [2] concerns the target T2, FLT3 ITD (Homo sapiens, UniProt P36888).
T2 construct: fused on or other part: DNA tag for qPCR detection (kinase-tagged T7 phage, or made in HEK-293 cells and then tagged with DNA)
T2 sequence (P36888 1-993): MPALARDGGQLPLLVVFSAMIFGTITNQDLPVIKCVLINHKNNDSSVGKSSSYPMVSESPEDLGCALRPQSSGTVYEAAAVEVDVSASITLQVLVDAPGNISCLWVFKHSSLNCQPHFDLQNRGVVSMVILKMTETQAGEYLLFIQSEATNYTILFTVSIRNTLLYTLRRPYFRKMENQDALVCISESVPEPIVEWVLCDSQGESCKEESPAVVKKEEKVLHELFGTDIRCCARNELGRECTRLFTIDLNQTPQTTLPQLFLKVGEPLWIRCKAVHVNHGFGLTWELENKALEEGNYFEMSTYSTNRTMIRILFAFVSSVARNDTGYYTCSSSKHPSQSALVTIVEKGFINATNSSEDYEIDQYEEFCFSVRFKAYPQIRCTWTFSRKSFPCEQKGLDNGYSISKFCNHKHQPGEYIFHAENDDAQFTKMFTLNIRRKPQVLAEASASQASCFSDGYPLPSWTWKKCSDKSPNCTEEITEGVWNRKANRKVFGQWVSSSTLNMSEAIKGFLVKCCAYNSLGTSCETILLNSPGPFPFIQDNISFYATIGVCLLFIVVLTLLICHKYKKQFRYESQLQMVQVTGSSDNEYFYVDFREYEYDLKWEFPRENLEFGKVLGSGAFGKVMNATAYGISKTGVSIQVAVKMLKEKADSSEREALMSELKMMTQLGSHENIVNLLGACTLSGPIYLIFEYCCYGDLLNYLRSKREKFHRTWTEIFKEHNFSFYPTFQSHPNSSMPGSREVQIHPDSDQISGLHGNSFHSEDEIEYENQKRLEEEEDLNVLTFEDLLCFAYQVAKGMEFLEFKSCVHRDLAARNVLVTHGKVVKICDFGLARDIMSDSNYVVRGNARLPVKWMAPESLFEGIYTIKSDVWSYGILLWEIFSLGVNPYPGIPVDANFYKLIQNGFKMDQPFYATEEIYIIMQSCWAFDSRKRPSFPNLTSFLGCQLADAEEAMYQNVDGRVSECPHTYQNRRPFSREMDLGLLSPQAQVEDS
Briefly: DiscoverX KINOMEscan competition binding assay, FLT3 ITD.
Source text: as §1, §2, §3

For assay [3], the target named is T3, FLT3 (Homo sapiens, UniProt P36888).
T3 sequence (P36888 27-993): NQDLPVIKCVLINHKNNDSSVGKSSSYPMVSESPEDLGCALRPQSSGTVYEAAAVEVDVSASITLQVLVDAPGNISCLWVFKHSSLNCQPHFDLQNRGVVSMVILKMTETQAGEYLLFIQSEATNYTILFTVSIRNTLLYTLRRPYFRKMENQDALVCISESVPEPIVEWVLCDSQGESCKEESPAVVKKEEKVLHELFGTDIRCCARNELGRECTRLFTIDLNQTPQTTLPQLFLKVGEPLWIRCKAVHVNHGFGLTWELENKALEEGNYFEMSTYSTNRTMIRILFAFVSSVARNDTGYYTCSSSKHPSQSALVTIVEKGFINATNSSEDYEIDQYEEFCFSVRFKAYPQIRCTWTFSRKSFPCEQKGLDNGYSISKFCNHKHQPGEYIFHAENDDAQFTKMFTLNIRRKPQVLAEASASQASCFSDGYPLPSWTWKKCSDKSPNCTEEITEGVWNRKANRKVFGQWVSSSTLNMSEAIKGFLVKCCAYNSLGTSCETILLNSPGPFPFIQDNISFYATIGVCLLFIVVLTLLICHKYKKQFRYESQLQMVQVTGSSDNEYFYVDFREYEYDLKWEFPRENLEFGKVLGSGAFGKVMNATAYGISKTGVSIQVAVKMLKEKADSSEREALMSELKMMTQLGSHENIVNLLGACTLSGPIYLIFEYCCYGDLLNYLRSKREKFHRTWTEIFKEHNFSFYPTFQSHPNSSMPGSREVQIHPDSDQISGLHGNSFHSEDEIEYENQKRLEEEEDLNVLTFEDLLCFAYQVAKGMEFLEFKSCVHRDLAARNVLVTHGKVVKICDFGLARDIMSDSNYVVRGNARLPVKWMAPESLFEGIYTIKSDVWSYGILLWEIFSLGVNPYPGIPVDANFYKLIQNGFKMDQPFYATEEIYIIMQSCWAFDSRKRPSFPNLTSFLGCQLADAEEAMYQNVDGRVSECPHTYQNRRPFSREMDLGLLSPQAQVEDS
Put plainly: DiscoverX KINOMEscan competition binding assay, FLT3. Also on record: purchased Reaction Biology (RBC HotSpot).
Source text: as §1, §2, §3

In general, Kd refers to the concentration at which binding is half-saturated. A lower Kd goes with tighter binding.

T1 sequence (P51617 whole entry): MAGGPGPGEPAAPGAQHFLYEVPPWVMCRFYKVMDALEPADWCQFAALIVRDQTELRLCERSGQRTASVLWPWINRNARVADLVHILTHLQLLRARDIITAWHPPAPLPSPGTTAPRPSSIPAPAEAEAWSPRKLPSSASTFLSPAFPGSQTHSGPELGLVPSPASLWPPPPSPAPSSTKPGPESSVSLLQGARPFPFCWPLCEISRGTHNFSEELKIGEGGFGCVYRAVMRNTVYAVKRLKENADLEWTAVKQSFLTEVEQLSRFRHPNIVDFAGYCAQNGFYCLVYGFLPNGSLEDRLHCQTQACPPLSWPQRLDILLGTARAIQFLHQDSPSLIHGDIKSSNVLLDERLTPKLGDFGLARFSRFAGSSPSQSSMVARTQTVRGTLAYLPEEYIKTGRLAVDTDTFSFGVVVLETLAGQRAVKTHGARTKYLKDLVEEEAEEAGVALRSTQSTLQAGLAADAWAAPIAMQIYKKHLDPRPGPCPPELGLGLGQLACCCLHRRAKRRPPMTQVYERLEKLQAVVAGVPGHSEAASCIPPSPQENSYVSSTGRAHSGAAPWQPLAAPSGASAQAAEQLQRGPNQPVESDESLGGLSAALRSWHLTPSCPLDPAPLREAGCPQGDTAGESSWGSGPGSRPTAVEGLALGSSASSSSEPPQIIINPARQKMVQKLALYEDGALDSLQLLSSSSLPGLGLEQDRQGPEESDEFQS

Take `COc1cc2ncc(-c3nc(N[C@H]4CNCC[C@@H]4F)ncc3F)n2nc1C1CC1` [Compound 1a, 4-(6-cyclopropyl-7-methoxyimidazo[1,2-b]pyridazin-3-yl)-5-fluoro-N-((3S,4S)-4-fluoropiperidin-3-yl)pyrimidin-2-amine]: the figures for the Kd in assay [1], in assay [2] and in assay [3] were below 0.17 nM, 0.21 nM and below 0.17 nM, respectively.

In the case of `FC(F)COc1cc2ncc(-c3ccnc(N[C@H]4CNCC[C@@H]4F)n3)n2nc1C1CC1` [Compound 4a, 4-(6-cyclopropyl-7-(2,2-difluoroethoxy)imidazo[1,2-b]pyridazin-3-yl)-N-((3 S,4S)-4-fluoropiperidin-3-yl)pyrimidin-2-amine], the Kd is 7.8 nM in assay [1], 1.7 nM in assay [2] and below 0.17 nM in assay [3].

Take `COc1cc2ncc(-c3nc(N[C@H]4CNCC[C@@H]4F)ncc3F)n2nc1C(C)(C)O` [Compound 45a, 2-(3-(5-fluoro-2-(((3S,4S)-4-fluoropiperidin-3-yl)amino)pyrimidin-4-yl)-7-methoxyimidazo[1,2-b]pyridazin-6-yl)propan-2-ol]: the equilibrium dissociation constant (Kd) was 1.6 nM in assay [1], below 0.17 nM in assay [2] and 1.1 nM in assay [3].

For the compound `CC(C)(O)c1ccc2ncc(-c3nc(N[C@H]4CNCC[C@@H]4F)ncc3F)n2c1` [Compound 46a, 2-(3-(5-fluoro-2-(((3S,4S)-4-fluoropiperidin-3-yl)amino)pyrimidin-4-yl)imidazo[1,2-a]pyridin-6-yl)propan-2-ol], the figures for the Kd in assay [1], in assay [2] and in assay [3] were 0.7 nM, 0.19 nM and 1.2 nM, respectively.

With `COc1cc2ncc(-c3nc(N[C@H]4CNCC[C@@H]4F)ncc3F)n2nc1C1COC1` [Compound 92a, 5-fluoro-N-((3S,4S)-4-fluoropiperidin-3-yl)-4-(7-methoxy-6-(oxetan-3-yl)imidazo[1,2-b]pyridazin-3-yl)pyrimidin-2-amine], the Kd is 0.49 nM in assay [1], 0.21 nM in assay [2] and below 0.17 nM in assay [3].

In the case of `CC(C)(O)c1cn2c(-c3nc(N[C@H]4CNCC[C@@H]4F)ncc3F)cnc2cn1` [Compound 100a, 2-(3-(5-fluoro-2-(((3S,4S)-4-fluoropiperidin-3-yl)amino)pyrimidin-4-yl)imidazo[1,2-a]pyrazin-6-yl)propan-2-ol], the results for the equilibrium dissociation constant (Kd) in assay [1], in assay [2] and in assay [3] were 4.5 nM, 2.7 nM and 16 nM, respectively.

Consider `COc1cc2ncc(-c3nc(N[C@H]4CNCC[C@@H]4F)ncc3F)n2nc1N1CCCS1(=O)=O` [Compound 112a, 2-(3-(5-fluoro-2-(((3S,4S)-4-fluoropiperidin-3-yl)amino)pyrimidin-4-yl)-7-methoxyimidazo[1,2-b]pyridazin-6-yl)isothiazolidine 1,1-dioxide], for which the figures for the Kd in assay [1], in assay [2] and in assay [3] were 1.1 nM, 0.2 nM and below 0.17 nM, respectively.
